Results reported in patent US20250325687A1, “CONJUGATE COMPRISING TOLL-LIKE RECEPTOR AGONIST” (MABSOFT THERAPEUTICS (SHANGHAI) CO., LTD., priority 2022, published 2025).
Where two headings read alike, the source gives them in different places.

How the values were obtained:
Type in all cases: cell-based
[1] = target: T1, hTLR8 (human Toll-like receptor 8) (Homo sapiens, UniProt Q9NR97); test: hTLR8 cell assay (HEK-Blue hTLR8 reporter cells); conditions: 24 hours, OD 650 nm
T1 construct: host or cells: HEK-Blue hTLR8 (HEK293-derived reporter cells)
T1 sequence (Q9NR97 27-1041): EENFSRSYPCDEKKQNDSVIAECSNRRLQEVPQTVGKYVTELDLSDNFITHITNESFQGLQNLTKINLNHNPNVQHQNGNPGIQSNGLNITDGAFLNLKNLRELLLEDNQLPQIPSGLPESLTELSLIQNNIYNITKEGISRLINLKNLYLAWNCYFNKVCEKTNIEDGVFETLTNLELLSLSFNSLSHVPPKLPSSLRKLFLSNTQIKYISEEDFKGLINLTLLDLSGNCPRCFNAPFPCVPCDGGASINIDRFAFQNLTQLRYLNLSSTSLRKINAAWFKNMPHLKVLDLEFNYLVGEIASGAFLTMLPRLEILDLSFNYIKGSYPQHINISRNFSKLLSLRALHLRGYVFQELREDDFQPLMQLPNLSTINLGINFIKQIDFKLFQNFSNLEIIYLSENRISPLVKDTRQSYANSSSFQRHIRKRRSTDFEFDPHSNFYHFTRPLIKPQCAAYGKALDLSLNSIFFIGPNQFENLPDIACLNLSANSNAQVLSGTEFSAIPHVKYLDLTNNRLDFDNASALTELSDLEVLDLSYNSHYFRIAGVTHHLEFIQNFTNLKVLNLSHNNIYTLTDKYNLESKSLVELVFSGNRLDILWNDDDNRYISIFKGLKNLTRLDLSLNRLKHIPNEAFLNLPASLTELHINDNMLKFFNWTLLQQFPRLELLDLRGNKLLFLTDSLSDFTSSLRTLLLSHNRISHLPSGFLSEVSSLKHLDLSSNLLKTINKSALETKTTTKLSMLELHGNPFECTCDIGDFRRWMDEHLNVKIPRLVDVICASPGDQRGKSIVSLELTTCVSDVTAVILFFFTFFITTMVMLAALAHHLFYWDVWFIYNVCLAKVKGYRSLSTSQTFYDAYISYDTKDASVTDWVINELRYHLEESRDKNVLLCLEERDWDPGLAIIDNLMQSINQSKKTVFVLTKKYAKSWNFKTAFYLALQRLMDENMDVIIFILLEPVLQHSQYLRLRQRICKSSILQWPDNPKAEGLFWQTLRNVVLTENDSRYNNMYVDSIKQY
Procedure, shortened: (§1)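 HEK-Blue reporter cells in HEK-Blue Detection medium (50000 cells/mL) were exposed to test compounds for 24 hours at 37° C, 5% CO2. Agonism was read from supernatant incubated 1 hour at 37° C with QUANTI-Blue, measured as optical density at 650 nm.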

[2] = system: human PBMC (human peripheral blood mononuclear cells); test: PBMC screening assay: induction of TNF-α production; conditions: read-out: EC50 (μM) TNF-α (hPBMC)
Procedure: The payload compounds of Formula (II′) were assayed to evaluate the induction of TNF-α production in human PBMC (human peripheral blood mononuclear cells).
Human peripheral blood mononuclear cells (PBMC) were obtained from Allcells. […] PBMC were incubated for 24 hours at 37° C. in a 5% CO2 humidified incubator. The following day PBMC plates were centrifuged at 500×g for 5 minutes and the growth media was removed. 200 μL of compound prepared in growth media at a series of diluted concentrations ranging from 2.54 nM to 50 μM were added to PBMC in duplicate and incubated for 24 hours at 37° C. in a 5% CO2 incubator. Prior to supernatant harvest, cells were spun at 500×g for 5 minutes to remove cell debris. TNF-α activity was assessed in the supernatant by ELISA (Elabscience) per the manufacturer's instructions. Optical density at 450 nm (ELISA) was analyzed using a plate reader.

[3] = target: T2, hTLR7 (human Toll-like receptor 7) (Homo sapiens, UniProt Q9NYK1); test: hTLR7 cell assay (HEK-Blue hTLR7 reporter cells); conditions: 24 hours, OD 650 nm
T2 construct: host or cells: HEK-Blue hTLR7 (HEK293-derived reporter cells)
T2 sequence (Q9NYK1 27-1049): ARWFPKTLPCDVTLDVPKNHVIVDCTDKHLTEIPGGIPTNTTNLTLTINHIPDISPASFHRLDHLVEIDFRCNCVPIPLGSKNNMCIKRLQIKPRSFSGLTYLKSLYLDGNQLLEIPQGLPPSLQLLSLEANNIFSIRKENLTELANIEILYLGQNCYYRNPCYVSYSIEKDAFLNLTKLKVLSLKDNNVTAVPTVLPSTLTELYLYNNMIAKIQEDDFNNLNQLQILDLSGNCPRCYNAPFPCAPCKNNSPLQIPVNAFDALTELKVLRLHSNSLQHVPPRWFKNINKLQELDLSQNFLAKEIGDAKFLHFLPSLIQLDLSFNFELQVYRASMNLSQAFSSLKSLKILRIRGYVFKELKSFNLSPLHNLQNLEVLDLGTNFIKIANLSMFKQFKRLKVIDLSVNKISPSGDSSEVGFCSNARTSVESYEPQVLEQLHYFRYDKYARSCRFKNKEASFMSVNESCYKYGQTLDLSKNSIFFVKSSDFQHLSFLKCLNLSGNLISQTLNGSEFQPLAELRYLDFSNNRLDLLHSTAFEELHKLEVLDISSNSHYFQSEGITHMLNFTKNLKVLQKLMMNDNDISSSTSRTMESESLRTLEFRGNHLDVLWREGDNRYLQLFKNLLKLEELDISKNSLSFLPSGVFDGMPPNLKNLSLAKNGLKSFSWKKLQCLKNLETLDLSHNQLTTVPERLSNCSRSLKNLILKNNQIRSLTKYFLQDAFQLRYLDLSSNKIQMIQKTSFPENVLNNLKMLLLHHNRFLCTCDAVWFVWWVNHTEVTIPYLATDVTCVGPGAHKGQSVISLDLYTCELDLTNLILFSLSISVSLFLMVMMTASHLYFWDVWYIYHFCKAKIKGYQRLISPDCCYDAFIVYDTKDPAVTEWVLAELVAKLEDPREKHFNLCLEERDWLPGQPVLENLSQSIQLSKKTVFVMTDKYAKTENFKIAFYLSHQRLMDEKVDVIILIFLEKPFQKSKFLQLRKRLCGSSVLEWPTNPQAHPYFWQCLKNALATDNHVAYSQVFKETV
Procedure, shortened: as §1

[4] = human PBMC, 24 hours, TNF-α by ELISA, class symbols

| SMILES | EC50 [1] [nM] | EC50 [3] [nM] | EC50 [2, 4] [µM] | EC50 ([2]; Homo sapiens, PBMC, 24 h) [µM] |
| --- | --- | --- | --- | --- |
| CC(C)(O)Cn1c(CC2CC2)nc2c(N)nc3cc(Cc4cccc(CN)c4)ccc3c21 [Compound 54, 1-(4-amino-7-(3-(aminomethyl)benzyl)-2-(cyclopropylmethyl)-1H-imidazo[4,5-c]quinolin-1-yl)-2-methylpropan-2-ol] | < 5000 | < 1000 | > 0.64 |  |
| CCCCc1nc2c(N)nc3cc(Cc4ccc5c(c4)C(N)CC5)ccc3c2n1CC(C)(C)O (stereo not drawn) [Compound 61, 1-(4-amino-7-((3-amino-2,3-dihydro-1H-inden-5-yl)methyl)-2-butyl-1H-imidazo[4,5-c]quinolin-1-yl)-2-methylpropan-2-ol] | < 5000 | < 1000 | < 0.64 |  |
| CCCCc1nc2c(N)nc3cc(Cc4cccc(CCCN)c4)ccc3c2n1CC(C)(C)O [Compound 18, 1-(4-amino-7-(3-(3-aminopropyl)benzyl)-2-butyl-1H-imidazo[4,5-c]quinolin-1-yl)-2-methylpropan-2-ol] | 5000 to 20000 | < 1000 |  | > 0.64 |
| CCCCc1nc2c(N)nc3cc(Cc4cccc(CNC(=O)CN)c4)ccc3c2n1CC(C)(C)O [Compound 66, 2-amino-N-(3-((4-amino-2-butyl-1-(2-hydroxy-2-methylpropyl)-1H-imidazo[4,5-c]quinolin-7-yl)methyl)benzyl)acetamide] | < 5000 | 1000 to 10000 | > 0.64 |  |
| CCCCc1nc2c(N)nc3cc(Cc4cccc(OCCN)c4)ccc3c2n1CC(C)(C)O [Compound 62, 1-(4-amino-7-(3-(2-aminoethoxy)benzyl)-2-butyl-1H-imidazo[4,5-c]quinolin-1-yl)-2-methylpropan-2-ol] | < 5000 | < 1000 | < 0.64 |  |
| CCOCc1nc2c(N)nc3cc(Cc4cccc(CN)c4)ccc3c2n1CC(C)(C)O [Compound 4, 1-(4-amino-7-(3-(aminomethyl)benzyl)-2-(ethoxymethyl)-1H-imidazo[4,5-c]quinolin-1-yl)-2-methylpropan-2-ol] | < 5000 | < 1000 |  | > 0.64 |

Now from value to compound, other results behind:

| EC50 [1] [nM] | EC50 [3] [nM] | SMILES | EC50 [2, 4] [µM] | EC50 ([2]; Homo sapiens, PBMC, 24 h) [µM] |
| --- | --- | --- | --- | --- |
| < 5000 | 1000 to 10000 | CCCC(F)(F)c1nc2c(N)nc3cc(Cc4cccc(CN)c4)ccc3c2n1CC(C)(C)O [Compound 52, 1-(4-amino-7-(3-(aminomethyl)benzyl)-2-(1,1-difluorobutyl)-1H-imidazo[4,5-c]quinolin-1-yl)-2-methylpropan-2-ol] | > 0.64 |  |
| < 5000 | < 1000 | CCOCc1nc2c(N)nc3cc(Cc4ccc5c(c4)CCNC5)ccc3c2n1CC(C)(C)O [Compound 152, 1-(4-amino-2-(ethoxymethyl)-7-((1,2,3,4-tetrahydroisoquinolin-6-yl)methyl)-1H-imidazo[4,5-c]quinolin-1-yl)-2-methylpropan-2-ol] | < 0.64 |  |
| < 5000 | 1000 to 10000 | CCCC(C)c1nc2c(N)nc3cc(Cc4ccccc4)ccc3c2n1CC(C)(C)OCCCN (stereo not drawn) [Compound 32, 1-(2-(3-aminopropoxy)-2-methylpropyl)-7-benzyl-2-(pentan-2-yl)-1H-imidazo[4,5-c]quinolin-4-amine] | > 0.64 |  |
| < 5000 | 1000 to 10000 | CCCCc1nc2c(N)nc3cc(Cc4cccc(C(=O)NCCN)c4)ccc3c2n1CC(C)(C)O [Compound 64, 3-((4-amino-2-butyl-1-(2-hydroxy-2-methylpropyl)-1H-imidazo[4,5-c]quinolin-7-yl)methyl)-N-(2-aminoethyl)benzamide] | < 0.64 |  |
